Values belong to the compound of their own block, whether it stands above or below them. Residues, ends and D or L forms follow the SMILES beside them.
Key:
Hepatitis B virus [1] = test: Antiviral activity against HBV infected in human HepG2.2.15 cells assessed as reduction in viral DNA levels incubated for 6 days by PCR analysis; type: functional, organism-based; settings: HepG2.2.15, 144 h
Hepatitis B virus [2] = test: Antiviral activity against Hepatitis B virus assessed as inhibition of HBV DNA replication; type: functional, organism-based
[3] = Inhibition of HBV RNA polymerase; parameters: species or system Hepatitis B virus
[4] = target: Human immunodeficiency virus type 1 reverse transcriptase (Human immunodeficiency virus 1, UniProt Q72547); test: Inhibition of HIV-1 reverse transcriptase
[5] = target: T1, NAD-dependent protein deacetylase sirtuin-2 (Homo sapiens, UniProt Q8IXJ6); test: Inhibition of SIRT2 (unknown origin)
T1 sequence (Q8IXJ6 whole entry): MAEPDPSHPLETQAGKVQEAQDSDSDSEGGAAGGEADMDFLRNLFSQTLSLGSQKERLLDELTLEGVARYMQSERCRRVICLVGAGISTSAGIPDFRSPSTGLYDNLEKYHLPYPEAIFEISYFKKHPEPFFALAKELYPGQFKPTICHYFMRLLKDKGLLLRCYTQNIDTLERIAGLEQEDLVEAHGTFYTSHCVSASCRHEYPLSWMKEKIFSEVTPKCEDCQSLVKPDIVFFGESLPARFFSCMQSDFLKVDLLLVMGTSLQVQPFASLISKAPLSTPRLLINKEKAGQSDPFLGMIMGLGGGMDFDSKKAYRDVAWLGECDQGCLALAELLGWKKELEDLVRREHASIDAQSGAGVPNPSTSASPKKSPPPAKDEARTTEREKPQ

Hepatitis B virus [6] = test: Antiviral activity against wild type HBV infected in HepG2.2.15 cells assessed as reduction in viral replication; type: functional, organism-based
[7] = target: T2, Hepatic sodium/bile acid cotransporter (Homo sapiens, UniProt Q14973); test: Inhibition of NTCP (unknown origin) stably transfected in HEK293 cells; type: cell-based
T2 sequence (Q14973 whole entry): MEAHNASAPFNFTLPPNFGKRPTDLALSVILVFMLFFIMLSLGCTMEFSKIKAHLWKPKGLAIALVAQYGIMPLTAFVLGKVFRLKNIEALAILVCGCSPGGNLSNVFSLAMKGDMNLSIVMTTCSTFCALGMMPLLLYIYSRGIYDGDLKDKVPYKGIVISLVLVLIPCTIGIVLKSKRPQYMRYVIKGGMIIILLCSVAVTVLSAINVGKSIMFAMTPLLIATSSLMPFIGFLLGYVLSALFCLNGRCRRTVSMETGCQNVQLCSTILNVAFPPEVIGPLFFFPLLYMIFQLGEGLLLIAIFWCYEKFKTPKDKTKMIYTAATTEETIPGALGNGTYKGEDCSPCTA

Hepatitis B virus [8] = test: Antiviral activity against HBV infected in human Primary hepatocytes assessed as reduction in HBV DNA level measured after 16 days by ELISA; settings: Hepatocyte, 384 h
Hepatitis B virus [9] = test: Antiviral activity against HBV infected in human HePAD38 cells assessed as reduction in viral replication by qPCR analysis; type: functional, organism-based
Hepatitis B virus [10] = test: Antiviral activity against HBV infected in human HepG2-NTCP12 cells assessed as inhibition of viral replication; type: functional, organism-based
Hepatitis B virus [11] = test: Antiviral activity against HBV infected in human Primary hepatocyte assessed as reduction in HBV replication; type: functional, organism-based
Hepatitis B virus [12] = test: Antiviral activity against HBV infected in human HepG2.2.15 cells; type: functional, organism-based
Hepatitis B virus [13] = test: Antiviral activity against HBV infected in human HepG2.117 cells assessed as reduction in intracellular DNA level by RT-qPCR analysis; type: functional, organism-based
[14] = target: Triosephosphate isomerase (Homo sapiens, UniProt P60174); test: Inhibition of TPI1 (unknown origin)
Hepatitis B virus [15] = test: Antiviral activity against HBV infected in human HepDES19 cells assessed as inhibition of extracellular HBV DNA by qPCR analysis; type: functional, organism-based
Hepatitis B virus [16] = test: Antiviral activity against HBV infected in human HepG2-hNTCP cells assessed as reduction in HBV DNA replication by qRT-PCR analysis; type: functional, organism-based

Triosephosphate isomerase, sequence (P60174 whole entry): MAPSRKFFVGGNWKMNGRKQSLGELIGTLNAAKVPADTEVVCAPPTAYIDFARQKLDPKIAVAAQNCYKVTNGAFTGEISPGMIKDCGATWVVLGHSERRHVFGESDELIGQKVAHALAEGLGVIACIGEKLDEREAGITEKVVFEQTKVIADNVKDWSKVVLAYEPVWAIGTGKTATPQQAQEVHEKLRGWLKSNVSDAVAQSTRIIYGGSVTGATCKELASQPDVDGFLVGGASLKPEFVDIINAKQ

Compound: O=C(OCc1ccc(-c2cnc3ccccc3n2)cc1)c1cccs1
EC50 (Hepatitis B virus [2]): > 10000 nM

Compound: NCCCC(=O)NCc1nc(-c2cccc(F)c2)c(-c2ccccn2)[nH]1
EC50 (Hepatitis B virus [2]): > 10000 nM

Compound: Cc1cn(-c2ccc3c(c2)CN(c2ncc(Cc4ccc(-n5cccn5)cc4)s2)CC3)c(C)n1
IC50 [5]: < 620 nM

Compound: CCC[C@@H]1NC(=O)[C@H](CC(C)C)N(C)C(=O)[C@H](CC(C)C)N(C)C(=O)CN(CCO)C(=O)[C@H](CC(C)C)N(C)C(=O)[C@@H](C)NC(=O)[C@H](CCC(N)=O)NC(=O)[C@H](CC(C)C)N(C)C(=O)[C@H](C(C)C)NC(=O)[C@H](CC(C)C)N(C)C(=O)CN(C)C1=O (HELM PEPTIDE1{[meL].[meL].[Nva].[Sar].[meL].V.[meL].Q.[dA].[meL].[O=C(CN(CCO)[*:1])[*:2]]}$PEPTIDE1,PEPTIDE1,1:R1-11:R2$$$V2.0)
IC50 [7]: 360 nM

Compound: CN1[C@H](C(=O)Nc2ccc(F)c(Cl)c2)C[C@H](c2ncc(-c3cn(C)cn3)s2)NS1(=O)=O
EC50 (Hepatitis B virus [8]): 41 nM
EC50 (Hepatitis B virus [9]): 22 nM
EC50 (Hepatitis B virus [10]): 27 nM

Compound: Cn1cnc(COC(=O)N[C@H]2CCc3c(C(=O)Nc4ccc(F)c(Cl)c4)ccc(F)c32)n1
EC50 (Hepatitis B virus [11]): 630 nM

Compound: O=C(O)C1CC(OCCOc2ccc(-c3cc(=O)c4cccc(Cl)c4o3)cc2)C1 (configuration not stated)
EC50 (Hepatitis B virus [11]): 200 nM

Compound: CCn1ccnc1-c1c(-c2ccccc2)ncn1CCCc1cccnc1
EC50 (Hepatitis B virus [2]): 10000 nM

Compound: CC(C)OC(=O)[C@H](C)NP(=O)(OC[C@@]1(F)CO[C@@H](n2cnc3c(N)ncnc32)[C@@H]1CO)Oc1ccccc1 (some centres not stated)
EC50 (Hepatitis B virus [13]): 80 nM

Compound: CCCCCCCc1cc(OC(=O)c2c(CCCCCCC)cc(O)cc2O[C@H]2O[C@@H](CO)[C@@H](O)[C@@H](O)[C@@H]2O)cc(O)c1C(=O)O
IC50 [14]: 2200 nM

Compound: O=C(Nc1ccc(F)c(Cl)c1)c1cc(S(=O)(=O)NC2CCCC2)cc2c1OCCO2
EC50 (Hepatitis B virus [1]): 500 nM

Compound: COc1cc2c(O[C@@H]3OC[C@](O)(CO[C@@H]4OC[C@@H](O)[C@H](O)[C@H]4O)[C@H]3O[C@@H]3OC[C@H](O)[C@H](O)[C@H]3O)c3c(c(-c4ccc5c(c4)OCO5)c2cc1OC)C(=O)OC3 [CILIATOSIDE A]
EC50 (Hepatitis B virus [16]): 5130 nM
EC50 (Hepatitis B virus [11]): 3360 nM

Further lines, results first:

EC50 (Hepatitis B virus [1]): 100 nM
Compound: O=C(Nc1ccc(F)c(C(F)F)c1)C1c2ccccc2NCC1CN1CCC(F)(F)CC1 (configuration not stated)

EC50 (Hepatitis B virus [2]): > 10000 nM
Compound: O=C(NCc1ccc(-c2cccnc2)nc1)c1ccc2nccnc2c1

IC50 [3]: 16700 nM
Compound: CCOC(=O)c1cc(-c2cc(=O)oc3ccccc23)oc1C

IC50 [4]: 320 nM
Compound: Nc1ncnc2c1ncn2[C@@H]1OC[C@](F)(COP(=O)(O)OP(=O)(O)OP(=O)(O)O)[C@H]1CO

EC50 (Hepatitis B virus [1]): 60 nM
Compound: Cc1cc(N)c(S(N)(=O)=O)cc1C(=O)Nc1cc(F)c(F)c(F)c1

EC50 (Hepatitis B virus [6]): 63700 nM
Compound: O=c1ccc2cc3ccoc3cc2o1 [PSORALEN]

EC50 (Hepatitis B virus [12]): 48.6 µg/mL
Compound: O=c1cc(-c2ccc(O)c(-c3c(O)cc(O)c4c(=O)cc(-c5ccc(O)cc5)oc34)c2)oc2cc(O)cc(O)c12 [AMENTOFLAVONE]

EC50 (Hepatitis B virus [6]): 42600 nM
Compound: COc1cc(C[C@@H]2CO[C@@H](c3ccc(O)c(OC)c3)[C@@H]2CO)ccc1O [(-)-Lariciresinol]

EC50 (Hepatitis B virus [12]): 6240 nM
Compound: CCOCCOC(=O)C1=C(C)NC(c2ncc(F)cc2F)=NC1c1ccc(F)cc1C (configuration not stated)

EC50 (Hepatitis B virus [12]): 56.4 µg/mL
Compound: COc1ccc(-c2cc(=O)c3c(O)cc(O)c(-c4cc(-c5cc(=O)c6c(O)cc(OC)cc6o5)ccc4OC)c3o2)cc1 [SCIADOPITISIN]

IC50 [14]: 1890 nM
Compound: C=C(c1ccc(C(=O)O)cc1)c1cc2c(cc1C)C(C)(C)CCC2(C)C [BEXAROTENE]

EC50 (Hepatitis B virus [15]): 100 nM
Compound: CCOC(=O)C1=C(CN2CCOCC2)NC(c2nccs2)=NC1c1ccc(F)cc1Br (configuration not stated)

Reference: ChEMBL document CHEMBL6127056, “Novel mechanistic insights - A brand new Era for anti-HBV drugs” (Eur J Med Chem, 2024)
